Laboratory results as given in article PMC3693772, “Protein expression, biochemical pharmacology of signal transduction, and relation to intraocular pressure modulation by bradykinin B2 receptors in ciliary muscle” (Molecular Vision, 2013).
Values joined by “and” are separate entries in the source; they are usually repeats but may differ in a detail not shown here. Equal values may be shown once. “Also recorded” adds a separate entry of the source. Read-outs that look alike come from different tables or passages of the source.

Legend:
human TM cells = settings: ref [33]; cited from earlier work
primary h-CM cells = format: cell-based, human
CHO-B2 cells [1] = format: cell-based, Chinese hamster ovary cells, human cloned B2 receptor; settings: 1 h at 37 °C; enzyme immunoassay; mean ± SEM, 3 to 6 experiments; read-out: PGE2 production in CHO-B2 cells (EC50)
B2 subtype = system: B2 subtype; parameters: method as in PMID 1313585; settings: ref [1]; cited from earlier work
h-CM cells [2] = format: cell-based, human; settings: 1 h at 37 °C; enzyme immunoassay; mean ± SEM, 3 to 6 experiments; read-out: PGE2 production in h-CM cells (EC50)
B1 subtype = system: B1 subtype; parameters: method as in PMID 1313585; settings: ref [1]; cited from earlier work
cynomolgus monkey eyes = assay: IOP after topical ocular dosing in cynomolgus monkeys; format: in vivo; settings: for IOP change (% of control) / IOP: 100 µg topical
Description: Intraocular pressure measurements
To extend our in vitro observations of the high density of B2-receptor protein in human and cynomolgus monkey ciliary muscle and non-pigmented ciliary epithelium, we studied the effects of topically administered BK (100 µg total dose in a sterile vehicle) on IOP in normotensive and TM-ablated hypertensive eyes of these animals. […] However, since we could not subject the monkeys to additional studies involving BK delivery to the eye interior, it was decided that intravitreal (ivt) injection of BK into pigmented Dutch-Belt rabbits would be worth pursuing. Thus, after light corneal anesthesia with 0.1% proparacaine, basal IOPs were determined in up to 10 Dutch-Belt rabbits using an Alcon Pneumotonometer (Alcon Laboratories Inc., Fort Worth, TX). After this time, 50 µg of BK (B2 agonist) or Des-Arg^9-BK (B1 agonist) in 20 µl of sterile basal salt solution (BSS plus), or just BSS plus vehicle, was injected ivt into one eye of each rabbit and the IOP determined at various times thereafter. Authors confirm adherence to the ARVO Statement for Animals in Ophthalmic and Vision Research, with all animal studies conducted according the guidelines for Animal Care and Use at Alcon Research Ltd.

pro-MMP-3, h-CM cells = assay: pro-MMP-3 release from h-CM cells; format: cell-based, human; settings: BK 10 nM to 1 µM, 24 h at 37 °C; n=5
Description: (§1) Measurement of extracellular signal-regulated kinase-1/2 phosphorylation and pro-matrix metalloproteinase production
(§2) The release of pro-MMP-1/2/3 in the extracellular medium of h-CM cells exposed to kinin’s, for 24 h at 37 °C [29, 30] was studied next. Thus, h-CM cells isolated from multiple human donor eyes were cultured as described above and then serum-starved for 24 h prior to the addition of any test compound. Cells were incubated with the vehicle or test compound for 24 hours at 37 °C after which the medium was collected and concentrated ten-fold using Centricon concentrators (Millipore Corp., Bellireca, MA). Equal volumes of this concentrate were loaded on 10% SDS-polyacrylamide gels (SDS-PAGE) and the proteins separated and transferred to nitrocellulose membranes. The membranes were then blocked with 5% non-fat dry milk (Bio-Rad Laboratories, Hercules, CA) followed by incubation with antibodies to pro-MMP-1, pro-MMP-2, or pro-MMP-3 for 12 hours at 4 °C with gentle shaking. After washing, these membranes were incubated with appropriate secondary antibodies (HRP-conjugated; dilution 1:3000) for 1 hour at 20 °C. […] For chemiluminescent detection, the membranes were treated with enhanced chemiluminescent reagent (Amersham Pharmacia, Piscataway, NJ) and the signal was quantified using a Bio-Rad Versadoc imaging system (Bio-Rad Laboratories, Hercules, CA).

pro-MMPs, h-CM cells = assay: pro-MMP release from h-CM cells (several pro-MMPs stated together); format: cell-based, human; settings: BK 0.1–1 µM at 24 h
Description: as §1, §2

CHO-B2 cells [3] = settings: read-out: PGD2 production in CHO-B2 cells (EC50), 1 h at 37 °C, enzyme immunoassay
Description: Measurement of prostaglandins in human ciliary muscle and Chinese hamster ovary cells expressing B2 receptors
This involved stimulating h-CM cells and CHO-B2 cells with various concentrations of test peptides and measuring the release of various PGs in the extracellular medium. The concentration-dependent effects of these peptides on total PGs, and specifically PGE2, PGF2α, and PGD2 release, were studied. Cells were grown as a monolayer in a 24-well plate (precoated with fibronectin) to confluence and subsequently serum-starved overnight before the experiment. On the day of the experiment, just before the drug was added, the wells were aspirated completely, and 990 µl basal medium and 10 µl 100× series of concentrations of the different peptide agonists were added to achieve the desired final concentrations of each compound (e.g., 0.1 nM to 10 µM). […] At the end of the incubation period, the cellular supernatants were collected and stored at −80 °C or used immediately to determine the PG content. Cell supernatants were tested for total PG levels and sub-species of PGs (PGE2, PGF2α, and PGD2) using specific competitive enzyme immunoassays (Cayman Chemical Co., Ann Arbor, MI) as directed in the manufacturer’s recommended protocols using the supplied standards and reagents. The limits of detection for various PGs were as follows: total PGs=29 pg/ml; PGE2=15 pg/ml; PGF2α=9 pg/ml; PGD2=200 pg/ml.

h-CM cells [4] = assay: Nitric oxide production in h-CM cells; format: cell-based, human; settings: BK 0.1 and 1 µM; data not shown
Source text: Measurement of nitric oxide production
In certain cell types, BK elevates intracellular levels of nitric oxide (NO), which in turn causes the generation of cGMP via the soluble guanylate cyclase in the cell cytosol. In the present studies, we determined whether the B2 receptors in h-CM cells were coupled to NO production using a specific kit (Promega Corp., Madison, WI) and according to the manufacturer’s instructions.

[5] = normal pressure eyes, 1 h, mean ± SEM, twelve monkeys
[6] = normal pressure eyes, 3 h, mean ± SEM, twelve monkeys
[7] = normal pressure eyes, 6 h, mean ± SEM, twelve monkeys
[8] = normal pressure eyes, 24 h, mean ± SEM, twelve monkeys
[9] = ocular hypertensive eyes, 1 h, mean ± SEM, twelve monkeys
[10] = ocular hypertensive eyes, 3 h, mean ± SEM, twelve monkeys
[11] = ocular hypertensive eyes, 6 h, mean ± SEM, twelve monkeys
[12] = ocular hypertensive eyes, 24 h, mean ± SEM, twelve monkeys

H-RPPGFSPFR-OH [BK]
Production of PGs in human TM cells (human TM cells): produced various PGs
EC50 (primary h-CM cells; 1 h at 37 °C, enzyme immunoassay, mean ± SEM, 3 to 6 experiments, read-out: Total PGs production in h-CM cells (EC50)): 8.6 ± 2.4 nM
BK-induced total PGs production/secretion, h-CM cells (primary h-CM cells; BK 100 nM (0.1 µM) to 10 µM, n=8): 393.3 ± 24.2 pg/mL and 393.3 pg/mL
Total PG secretion above basal levels (primary h-CM cells; BK 1 µM, Figure 6A, single experiment): substantially increased the PGs secreted above the basal levels
EC50 (CHO-B2 cells [1]): 0.0328 ± 0.00903 nM
Affinity for B2 subtype (B2 subtype): high affinity
EC50 (h-CM cells [2]): 8.9 ± 0.2 nM
Affinity for B1 subtype (B1 subtype): low affinity
IOP effect of topical BK (cynomolgus monkey eyes; 100 µg topical ocular, conscious cynomolgus monkeys, normotensive and hypertensive eyes): failed to alter IOP; also recorded: no remarkable changes in IOP; also recorded: no alteration in IOP; also recorded: failed to modulate IOP
IOP change (% of control) (cynomolgus monkey eyes; normal pressure eyes, 0 h (baseline)): 0%
IOP (cynomolgus monkey eyes; normal pressure eyes, 0 h (baseline), mean ± SEM, twelve monkeys): 27.1±1.0 mmHg
IOP (cynomolgus monkey eyes; [5]): 27.1±1.1 mmHg
IOP change (% of control) (cynomolgus monkey eyes; [5]): 0.2±2.5%
IOP (cynomolgus monkey eyes; [6]): 26.6±0.7 mmHg
IOP change (% of control) (cynomolgus monkey eyes; [6]): −1.0±2.9%
IOP (cynomolgus monkey eyes; [7]): 27.2±1.1 mmHg
IOP change (% of control) (cynomolgus monkey eyes; [7]): 0.8±2.3%
IOP (cynomolgus monkey eyes; [8]): 27.8±1.4 mmHg
IOP change (% of control) (cynomolgus monkey eyes; [8]): 2.4±3.3%
IOP change (% of control) (cynomolgus monkey eyes; ocular hypertensive eyes, 0 h (baseline)): 0%
IOP (cynomolgus monkey eyes; ocular hypertensive eyes, 0 h (baseline), mean ± SEM, twelve monkeys): 36.8±1.6 mmHg
IOP (cynomolgus monkey eyes; [9]): 35.9±1.8 mmHg
IOP change (% of control) (cynomolgus monkey eyes; [9]): −2.6±1.5%
IOP (cynomolgus monkey eyes; [10]): 35.7±1.6 mmHg
IOP change (% of control) (cynomolgus monkey eyes; [10]): −2.7±3.3%
IOP (cynomolgus monkey eyes; [11]): 36.6±1.7 mmHg
IOP change (% of control) (cynomolgus monkey eyes; [11]): −0.4±3.0%
IOP (cynomolgus monkey eyes; [12]): 35.3±1.6 mmHg
IOP change (% of control) (cynomolgus monkey eyes; [12]): −4.1±2.3%
pro-MMP-3 release vs basal level (pro-MMP-3, h-CM cells): 1.41±0.09 fold
Increase in promatrix metalloproteinases-1–3 release (pro-MMPs, h-CM cells): 1.4–3.1 fold
EC50 (CHO-B2 cells [3]; first of two values in cell): 0.0113 nM
EC50 (CHO-B2 cells [3]; second of two values in cell): 0.181 nM
Effect on NO levels (h-CM cells [4]): failed to have any effect on NO levels; also recorded: failed to do so in h-CM cells
